Assay results: PMC6058525, “A novel phenolic propanediamine moiety-based lung-targeting therapy for asthma” (Drug Delivery, 2018)
Converted amounts (≈) assume the structure as drawn.

Key:
[1] = test system: A549 cells; experiment: Cellular uptake of TPD-Rhein in the presence of transporter inhibitors; type: cell-based, human; conditions: A549 cells preincubated 1 h with inhibitor 189 μM, then TPD-Rhein 18.9 μM 1 h; vs control without inhibitor
Experimental: The A549 cells were seeded in 6-well culture plates (5 × 10^5 cells/well). On the second day, cells were incubated with Rhein or TPD-Rhein solution at increasing concentrations (4.7, 9.3, 18.9 and 37.4 μM, respectively, equivalent to Rhein) at 37 °C for 1 h. Cells were rinsed three times with ice-cold PBS and collected for the determination of intracellular concentration. To explore the cell delivery mechanism of TPD, the cells were precubated with indicated inhibitors for 1 h and then incubated with TPD-Rhein (18.9 μM) for another 1 h. For energy depletion, cells were exposed to Rhein or TPD-Rhein (18.9 μM) for 0.5 h at 37 °C, 4 °C, or in the presence of NaN3 (1 mg/mL) for 1 h. Lysine and L-arginine were substrates of basic amino acid transporters (Zhou et al., [2016]). Pyrilamine was used to indicate pyrilamine-sensitive transporter (Okura et al., [2008]). Spermine and Spermidine were inhibitors of the alkaline polyamine transporter (Grancara et al., [2014]). […] Choline was a substrate of choline transport system (Taguchi et al., [2014]). TPD was performed as a competitive cationic inhibitor. The inhibitor concentrations were 10-fold (189 μM) of the concentration of TPD-Rhein. In the end, cells were rinsed three times with ice-cold PBS and the intracellular concentrations of Rhein or TPD-Rhein were measured by LC-MS/MS. Cellular uptake was expressed as the amount (nmol/L) of Rhein or TPD-Rhein per 1 mg of total cellular protein. The total protein concentration of cell lysates was measured using the BCA protein assay kit (Pierce, Appleton, WI).

[2] = Plasma pharmacokinetics after i.v. injection; type: in vivo; conditions: rat, iv, rats, 10 mg/kg Rhein equivalent
Experimental: Rhein or TPD-Rhein was injected through the tail vein of rats. For each preparation and sampling time point, five rats were treated with a single dose of Rhein at the dose of 10 mg/kg or TPD-Rhein at 17.2 mg/kg (dose equivalent to 10 mg/kg Rhein), respectively. The rats were scarified at predetermined time intervals (0.083, 0.25, 0.5, 1, 2, 4, 8, 16, and 24 h) after administration. The whole blood was quickly collected into heparinized tubes and centrifuged at 5000 rpm for 5 min to obtain plasma. Then, the tissues (heart, liver, spleen, lung, kidney, and brain) were rinsed with saline, weighed and homogenized with cold physiological saline (twice the weight of tissues). For Rhein treated rats, the content of Rhein in the homogenates was measured by LC-MS/MS. For TPD-Rhein treated rats, the samples were injected to LC-MS/MS to determine the concentration of free Rhein released and TPD-Rhein, respectively. The content of TPD-Rhein in tested tissues at different time point was the sum of TPD-Rhein and free Rhein released. The biodistribution of the two drugs in each organ was normalized by the weight of the selected tissue.
The pharmacokinetic data were calculated using the DAS software version 2.0 (Mathematical Pharmacology Professional Committee of China, Shanghai, China). The relative uptake efficiency (Re) and concentration efficiency (Ce) were used to evaluate the lung-targeting properties of TPD-Rhein. The values of Re and Ce were calculated as follows: Relung=(AUC0-t, lung)TPD-Rhein/(AUC0-t, lung)Rhein Celung=(Cmax, lung)TPD-Rhein/(Cmax, lung)Rhein

[3] = test system: OVA-induced asthma model in rats; experiment: Therapeutic effect on ovalbumin-induced asthma model; type: in vivo, rat; conditions: OVA-challenged asthmatic rats, i.v. Rhein 4.5 mg/kg/day or TPD-Rhein 7.7 mg/kg/day
Experimental: Wistar rats were used to evaluate the efficacy of Rhein and TPD-Rhein on asthma. Forty healthy male rats (200 ± 20 g) were randomly divided into four groups (n = 10). Asthma model in rats was established according to a previously reported method with slight modifications (Lu et al., [2015]). Briefly, on day 0, rats were systemically sensitized with an intraperitoneal injection with 1 mL of 10% ovalbumin (OVA). Two weeks after the sensitization, the rats were exposed to aerosolized OVA for 30 min of cycling three times per week for 14 weeks. The concentration of OVA was increased from 2% for 8 weeks to 4% for remaining 6 weeks to maintain the asthma condition. From weeks 3–16, the OVA-sensitized rats in the treatment groups were given normal saline, Rhein, or TPD-Rhein intravenously before OVA inhalation, at doses of 4.5 mg/kg/day for Rhein and 7.7 mg/kg/day for TPD-Rhein (dose equivalent to free drug treatment), respectively. The rats in the normal group received with the same volume of normal saline instead. One day after the last ultrasonic atomization, all rats were anesthetized by 3% sodium pentobarbital solution at a dose of 45 mg/kg. Then, 0.5 mL of intracardiac blood of each rat was collected. The histamine level and Interleukin-5 (IL-5) level in the supernatant serum were determined using Rat HIS ELISA kit (R&D Company, Minneapolis, MN) and Rat IL-5 ELISA Kit (R&D Company, Minneapolis, MN) according to the manufacturer’s instructions, respectively. Lungs were removed from sacrificed rats and lavaged to determine the IL-5 level using the corresponding kit. In the end, lungs were fixed in 4% buffered formalin, paraffin embedded and sectioned for hematoxylin and eosin staining (H&E) for conventional histological analysis.

[4] = test system: L929 cells; experiment: Cell uptake in L929 cells; type: cell-based, mouse
Source text: (§1) Male Wistar rats (body weight: 200 ± 20 g) were supplied by the Experimental Animal Center of Zhengzhou University (Zhengzhou, China). Rats were maintained in a germ-free environment and allowed free access to food and water for at least one week before experiments. All animal experiments were approved by the Institutional Animal Care and Ethics Committee of Zhengzhou University, according to the requirements of the National Act on the use of experimental animals (PR China). A549 cells (human pulmonary alveolar epithelial cells), L929 cells (mouse fibroblast cells), and Hela cells (human carcinoma cervical cells) were obtained from ATCC (Manassas, VA). The cells were cultured in DMEM with high glucose (GIBCO, Big Cabin, OK) supplemented with 20% fetal bovine serum and 1% penicillin/streptomycin. Routinely, cells were maintained at 37 °C in a humidified atmosphere containing 5% CO2, and the cell medium was changed every other day. The A549 cells were seeded in 6-well culture plates (5 × 10^5 cells/well). […] In the end, cells were rinsed three times with ice-cold PBS and the intracellular concentrations of Rhein or TPD-Rhein were measured by LC-MS/MS. Cellular uptake was expressed as the amount (nmol/L) of Rhein or TPD-Rhein per 1 mg of total cellular protein. The total protein concentration of cell lysates was measured using the BCA protein assay kit (Pierce, Appleton, WI).

[5] = Aqueous solubility in PBS; type: physicochemical; conditions: 25 °C, thermodynamic from solid
Experimental: The solubilities of Rhein and TPD-Rhein were determined in PBS with varying pH values (pH = 2 and 7.4) by equilibrating an excess of solid compound in 5 mL of buffer at 25 °C for 12 h. The samples were filtered through a 0.22 µm Millipore filter, diluted in methanol, and analyzed by LC-MS/MS. The chemical and enzymatic stabilities of TPD-Rhein were assessed in PBS with varying pH values (pH = 2, 4.5, 6.8, and 7.4), freshly prepared rat plasma and lung homogenates (diluted with 0.9% physiological saline) from rats at 37 °C, respectively. At predetermined time intervals, samples were immediately diluted by an equal amount of methanol to precipitate protein, vortexed for 5 min and centrifuged at 13,000 rpm for 10 min. The supernatant was then subjected to LC-MS/MS. Stability studies were performed in triplicate.

[6] = test system: A549 cells; experiment: Cell uptake study in A549 cells (LC-MS/MS); type: cell-based, human; conditions: 18.9 μM, NaN3 1 mg/mL
Experimental: The A549 cells were seeded in 6-well culture plates (5 × 10^5 cells/well). On the second day, cells were incubated with Rhein or TPD-Rhein solution at increasing concentrations (4.7, 9.3, 18.9 and 37.4 μM, respectively, equivalent to Rhein) at 37 °C for 1 h. Cells were rinsed three times with ice-cold PBS and collected for the determination of intracellular concentration. To explore the cell delivery mechanism of TPD, the cells were precubated with indicated inhibitors for 1 h and then incubated with TPD-Rhein (18.9 μM) for another 1 h. For energy depletion, cells were exposed to Rhein or TPD-Rhein (18.9 μM) for 0.5 h at 37 °C, 4 °C, or in the presence of NaN3 (1 mg/mL) for 1 h. Lysine and L-arginine were substrates of basic amino acid transporters (Zhou et al., [2016]). Pyrilamine was used to indicate pyrilamine-sensitive transporter (Okura et al., [2008]). Spermine and Spermidine were inhibitors of the alkaline polyamine transporter (Grancara et al., [2014]). […] In the end, cells were rinsed three times with ice-cold PBS and the intracellular concentrations of Rhein or TPD-Rhein were measured by LC-MS/MS. Cellular uptake was expressed as the amount (nmol/L) of Rhein or TPD-Rhein per 1 mg of total cellular protein. The total protein concentration of cell lysates was measured using the BCA protein assay kit (Pierce, Appleton, WI).

[7] = test system: Hela cells; experiment: Cell uptake in Hela cells; type: cell-based, human
Source text: as §1

[8] = In vitro cytotoxicity, MTT assay; type: cell-based; conditions: human, A549 cells, under tested concentrations, read-out: A549 cells remaining viable
Experimental: To evaluate the in vitro cytotoxicity of Rhein and TPD-Rhein, MTT (3-(4, 5-dimethylthiazol-2-yl)-2, 5-diphenyltetrazolium bromide) assays were performed using A549 cell lines. Briefly, A549 cells were seeded in 96-well culture plates at a density of 1 × 10^4 cells/well and incubated at 37 °C for two days. On the day of administration, the cells were treated with different concentrations of Rhein solution, TPD-Rhein solution or TPD solution (dispersed in serum-free culture medium) for 4 h. An aliquot of 20 μL MTT solution (5 mg/mL) were added into each well and incubated at 37 °C for another 4 h. After that, all medium was removed and cells were rinsed with phosphate-buffered saline (PBS), and the formed dark blue formazan crystals in each well were dissolved in 150 μL DMSO. The absorbance of each individual well was read on a microplate reader (Thermo Scientific, Waltham, MA, Varioskan Flash) at 570 nm wavelength. Cells not exposed to samples were used as control (=100% viability).

In the case of `N=C(N)NCCC[C@H](N)C(=O)O` [L-arginine], the “effect of inhibitor on cellular uptake of TPD-Rhein” value (from here on “effect of inhibitor”) [1] is reported as “no obvious impact”.
In the case of `C[N+](C)(C)C[C@H](O)CC(=O)[O-]` [L-carnitine], the “effect of inhibitor” value [1] is reported as “no obvious impact”.
For `NCCCC[C@H](N)C(=O)O` [L-lysine], the “effect of inhibitor” value [1] was “no obvious impact”.
In the case of `O=C(O)c1cc(O)c2c(c1)C(=O)c1cccc(O)c1C2=O` [Rhein, 4,5-dihydroxyanthraquinone-2-carboxylic acid], the AUC(0-t) [2] is reported as 206 ± 10.6 µM·h, the Cmax [2] is reported as 308 ± 3.89 µM and the clearance ([2]; read-out: CLZ (converted)) is reported as 2.83 mL/min/kg. For the same molecule, the Vd ([2]; read-out: VZ) was 0.47 ± 0.02 L/kg, the “bronchoalveolar lavage fluid IL-5 level” value ([3]; vs asthmatic model group) was “no significant differences” and the “plasma (serum) IL-5 level” value ([3]; vs asthmatic model group) was “no significant differences”. The “lung histology (H&E)” value ([3]; vs asthmatic model rats) was “no significant improved anti-asthma efficacy”, the “uptake compared with A549 cells” value [4] was “slight decrease” and the solubility at 12 h ([5]; pH 2, aqueous buffer, PBS pH 2.0, 25 °C) was 3.56 ± 0.2 µg/mL (≈ 12.5 µM). For the same molecule, the solubility at 12 h ([5]; pH 7.4, aqueous buffer, PBS pH 7.4, 25 °C) was 513 ± 32 µg/mL (≈ 1800 µM), the “intracellular amount at 4 °C or in the presence of NaN3 versus 37 °C” value [6] was “no substantial difference” and the “uptake compared with A549 cells” value [7] was “slight decrease”.
With `CN(C)CCCN(C)Cc1ccc(O)cc1` [TPD, N,N,N’-trimethyl-N’-(4-hydroxyl-benzyl)-1,3-propanediamine] the “effect of inhibitor” value [1] was “abolish” and the viability at 4 h [8] was greater than 90%.
With `CC[N+](CC)(CC)CC.[Cl-]` [Tetraethylammonium (TEA) chloride] the “effect of inhibitor” value [1] was “significantly reduced”.
For `C[N+](C)(C)CCO` [choline], the “effect of inhibitor” value [1] was “no obvious impact”.
For `CN(C)CCCN1c2ccccc2CCc2ccccc21` [imipramine], the “effect of inhibitor” value [1] was “significantly reduced”.
For `COc1ccc(CN(CCN(C)C)c2ccccn2)cc1` [pyrilamine], the “effect of inhibitor” value [1] was “no obvious impact”.
In the case of `NCCCCNCCCN` [spermidine], the “effect of inhibitor” value [1] is reported as “no obvious impact”.
For `NCCCNCCCCNCCCN` [spermine], the “effect of inhibitor” value [1] was “no obvious impact”.
